Eleven compounds from PubChem BioAssay (NCI) can be followed below.

What all share (experiment): NCI anticancer screen, dose series, 48 h
Assay [1] deals with SF-268 CNS.
Assay [2] relates to OVCAR-5 ovarian.
In assay [3] the test system is SK-MEL-2 melanoma.
Assay [4] concerns HOP-62 NSCLC.
Assay [5] relates to MALME-3M melanoma.
For assay [6], the system named is HCT-15 colon.
Assay [7] has as its system LOX IMVI melanoma.
Assay [8] deals with SK-MEL-28 melanoma.
The test system of assay [9] is UACC-62 melanoma.
Assay [10] concerns RPMI-8226 leukemia.

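Tested at 5 concentrations; 48 h exposure; 96-well plates; endpoints linearly interpolated, else capped at highest concentration. TGI: concentration producing complete growth inhibition.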 Where only a bound is given, the exact number is not on record here.

For `C=C1C(O)C2OC(=O)C(=C)C2C(OC(=O)/C(C)=C/C)CC2(C)OC2C2OC12` (stereo not given), the TGI is > 100 µM in [1]; 83.7 µM in [2]; 38.4 µM in assay [3]; > 100 µM in [4]; 29 µM in assay [5]; 14.5 µM in [6]. Also, the TGI in assay [7] is 29.7 µM; in [8], > 100 µM; in assay [9], 48.2 µM; in assay [10], 7.72 µM.

Turning to `CCN1CCC(O)(/C=C/c2ccc(Cl)c(Cl)c2)C(C(=O)/C=C/c2ccc(Cl)c(Cl)c2)C1` (stereo not given), the TGI in assay [1] was determined as 2.54 µM; in assay [2] it was 2.52 µM; in assay [3], 3.66 µM; in [4], 2.48 µM; in assay [5], 2.5 µM; in [6], 4.52 µM. Also, the TGI in assay [7] was 2.02 µM; in assay [8], 7.97 µM; in [9] it was 2.4 µM; in [10] it was > 100 µM.

As for `COc1cc(/C=[N+](\[O-])c2ccccc2Cl)ccc1OC(=S)S`, the TGI in [1], in assay [2], in [3], in [4], in [5] and in [6] was > 100 µM each time. In addition, the TGI in assay [7] is > 100 µM; in assay [8] it was > 100 µM; in assay [9], 99.7 µM; in assay [10] it was > 100 µM.

With `OC[C@H](O)[C@@H](OCc1ccccc1)[C@H](NCc1ccccc1)c1cccs1`, the TGI in assay [1], in assay [2], in assay [3], in [4], in assay [5] and in assay [6] was > 100 µM in each case. The TGI in [7], in assay [8], in assay [9] and in [10] was > 100 µM each time.

`COC(=O)C1=C(C(=O)OC)SC2(S1)C(C(=O)OC)=C(C(=O)OC)Sc1c2ssc1=O`: the TGI came out at 10.3 µM in [1]; 5.02 µM in assay [2]; 4.1 µM in assay [3]; 4.53 µM in assay [4]; 1.55 µM in assay [5]; 1.57 µM in assay [6]. Also, the TGI worked out at 0.817 µM in assay [7], 3.26 µM in assay [8], 1.37 µM in [9] and 5.68 µM in assay [10].

`Cc1ccc(S(=O)(=O)N(CC(O)COc2ccccc2)c2ccccc2Cl)cc1` (stereo not given): the TGI was determined as 35.7 µM in assay [1]; 51 µM in assay [2]; 27 µM in assay [3]; 34.8 µM in assay [4]; 29.2 µM in [5]; 29.3 µM in assay [6]. The TGI in assay [7] is 38.8 µM; in assay [8] it was 29.1 µM; in assay [9], 21.5 µM; in assay [10], 30.4 µM.

For the compound `C=C1C(=O)OC2C=C(C)CC3C=C(CCC=C(C)CCC12)C(=O)O3` (stereo not given), the TGI is 145 µM in [1]; 208 µM in [2]; 101 µM in assay [3]; 216 µM in assay [4]; > 81.4 µM in assay [5]; 131 µM in assay [6]. In addition, the TGI was 95.1 µM in [7], 119 µM in [8], 113 µM in assay [9] and 155 µM in assay [10].

Take `c1ccc(C(OCCN2CC3CCC(C2)N3)c2ccccc2)cc1`: the TGI was > 100 µM in [1]; > 100 µM in assay [2]; > 100 µM in assay [3]; > 100 µM in assay [4]; 30.5 µM in assay [5]; > 100 µM in assay [6]. The TGI in [7] was > 100 µM; in [8], > 100 µM; in assay [9], 64.3 µM; in [10], > 100 µM.

Turning to `Nc1ccc2ncc(NCc3ccc(F)cc3)nc2c1`, the TGI in assay [1], in assay [2], in [3], in [4], in assay [5] and in assay [6] was > 100 µM in each case. The TGI in assay [7], in assay [8], in assay [9] and in assay [10] was > 100 µM each time.

For the compound `Cc1cccc(N=Nc2ccc(O)c(CN(C)C)c2)c1`, the TGI in [1] was > 100 µM; in assay [2] it was 98.4 µM; in [3], 47.6 µM; in assay [4] it was 28.9 µM; in [5], 21.8 µM; in [6], 80.6 µM. Moreover, the TGI in assay [7] is 26.9 µM; in assay [8], 36.9 µM; in assay [9] it was 30.4 µM; in assay [10], > 100 µM.

For `CC(=O)Nc1ccc(S(=O)(=O)Nc2cnc3ccccc3n2)cc1`, the TGI in assay [1], in assay [2], in assay [3], in assay [4], in [5] and in assay [6] was > 100 µM each time. Also, the TGI in assay [7], in [8], in assay [9] and in assay [10] was > 100 µM in each case.
